Test results taken from patent publication US20230126569A1, “COMPOSITION FOR […] OF SARS-CoV-2 TO ACE2 PROTEIN” (priority 2020, published 2023).
Where “and” joins values, the source holds several entries; their conditions need not be identical. Equal entries are not always repeated.

Columns and labels:
[1] = biological target: T1, binding between the spike protein of SARS-CoV-2 and the ACE2 protein (Severe acute respiratory syndrome coronavirus 2, UniProt P0DTC2)
[2] = biological target: T1, binding between the spike protein of SARS-CoV-2 and the ACE2 protein; remark: listed apart in the source

[O][Cl+][O-] [Chlorine Dioxide, chlorine dioxide]
binding between the spike protein and the ACE2 protein [1]: significantly reduced
Luminescence Intensity (counts/sec × 1000, average ± standard deviation, n = 3) [2]: 1322 ± 45 counts/sec × 1000 and 1072 ± 47 counts/sec × 1000
